Measured values: publication PMC9841524, “Structure-Based Rational Design of Small α-Helical Peptides with Broad-Spectrum Activity against Multidrug-Resistant Pathogens” (Journal of Medicinal Chemistry, 2022)
In brackets after ≈: the same amount, converted by molar mass. Read-outs that look alike come from different tables or passages of the source. Where no end group is shown, it is not given here.

Key:
[1] = test system: Bacillus subtilis (ATCC 6633)
Summary of the method: (§1)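 Broth microdilution per CLSI: overnight cultures diluted in cation-adjusted Mueller Hinton Broth to 10^6 CFU/mL, mixed with 2-fold serial peptide dilutions, incubated 37 °C for 24 h. MIC = lowest peptide concentration inhibiting growth. Three independent assays in triplicate.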

MRSA (ATCC BAA-1556) = conditions: for MIC, MRSA (ATCC BAA-1556), Control: MH media without salt ions or serum; for MIC, MRSA (ATCC BAA-1556), Control / MIC, MRSA (ATCC BAA-1556), MgCl2 / MIC, MRSA (ATCC BAA-1556), CaCl2 / MIC, MRSA (ATCC BAA-1556), KCl / MIC, MRSA (ATCC BAA-1556), NH4Cl / MIC, MRSA (ATCC BAA-1556), NaCl / MIC, MRSA (ATCC BAA-1556), FBS (25%): three independent experiments in triplicate; for MIC, MRSA (ATCC BAA-1556): broth microdilution (CLSI), CAMHB, 37 °C, 24 h; for MIC, MRSA (ATCC BAA-1556), MgCl2: media with 1 mM MgCl2; for MIC, MRSA (ATCC BAA-1556), CaCl2: media with 2 mM CaCl2; for MIC, MRSA (ATCC BAA-1556), KCl: media with 4.5 mM KCl; for MIC, MRSA (ATCC BAA-1556), NH4Cl: media with 6 mM NH4Cl; for MIC, MRSA (ATCC BAA-1556), NaCl: media with 150 mM NaCl; for MIC, MRSA (ATCC BAA-1556), FBS (25%): media with 25% fetal bovine serum
Summary of the method: as §1

[2] = test system: S. pneumoniae (ATCC 49619); conditions: Gram-positive; CLSI microdilution, CAMHB + 2.5% lysed horse blood, 37 °C, 24 h; highest MIC of three independent experiments in triplicate
Summary of the method: as §1

[3] = test system: human lung fibroblast cells (MRC-5), human embryonic kidney cells (HEK-293), human hepatic cells (HepaRG), HeKa cells; assay: 24 h cell viability assay (MTS); assay type: cell-based; conditions: triplicate
Description: The in vitro cytotoxicity of 8a and 8b was evaluated using human lung fibroblast cells (MRC-5), human embryonic kidney cells (HEK-293), human hepatic cells (HepaRG), and human epidermal keratinocytes (HEKa). Cells were seeded at 10,000 per well in 0.1 mL of media in 96-well plates 24 h prior to the experiment. Lung and kidney cells were seeded in DMEM medium containing FBS (10%). Liver cells were seeded in William’s E medium with the GlutaMAX supplement. Epidermal keratinocytes were seeded in a Dermal Cell Basal medium supplemented with a keratinocyte growth kit. The peptides were added to each well in triplicates at a variable concentration of 10–250 μg/mL and incubated for 24h at 37 °C in a humidified atmosphere of 5% CO2. After the incubation period, the MTS solution (20 μL) was added to each well. Then, the cells were incubated for 2 h at 37 °C, and the cell viability was determined by measuring the absorbance at 490 nm using a SpectraMaxM2 microplate spectrophotometer. The percentage of cell survival was calculated as [(OD value of cells treated with the test mixture of compounds) – (OD value of culture medium)]/[(OD value of control cells) – (OD value of culture medium)] × 100%.

[4] = test system: A. baumannii (ATCC BAA1605); conditions: Gram-negative, footnote e ciprofloxacin (MDR in Table S3); CLSI microdilution, CAMHB, 37 °C, 24 h; highest MIC of three independent experiments in triplicate
Summary of the method: as §1

E. coli (ATCC 25922) = conditions: for MIC, E. coli (ATCC 25922): broth microdilution (CLSI), CAMHB, 37 °C, 24 h
Summary of the method: as §1

E. coli (ATCC BAA-2452) = conditions: Gram-negative, NDM-1; CLSI microdilution, CAMHB, 37 °C, 24 h; highest MIC of three independent experiments in triplicate
Summary of the method: as §1

[5] = test system: K. pneumonia (ATCC BAA-2470); conditions: Gram-negative, carbapenem-resistant; CLSI microdilution, CAMHB, 37 °C, 24 h; highest MIC of three independent experiments in triplicate
Summary of the method: as §1

[6] = test system: Klebsiella pneumonia (ATCC 13883)
Summary of the method: as §1

[7] = test system: P. aeruginosa (ATCC 10145)
Summary of the method: as §1

[8] = test system: nonresistant and MDR S. pneumoniae; conditions: Table 2
Summary of the method: as §1

[9] = 10^6 CFU/mL, highest MIC of three independent experiments in triplicate
[10] = media with 1 mM MgCl2, three independent experiments in triplicate
[11] = media with 2 mM CaCl2, three independent experiments in triplicate
[12] = media with 4.5 mM KCl, three independent experiments in triplicate
[13] = media with 6 mM NH4Cl, three independent experiments in triplicate
[14] = Gram-negative, CLSI microdilution, CAMHB, 37 °C, 24 h, highest MIC of three independent experiments in triplicate
[15] = all tested cells (MRC-5, HEK-293, HepaRG, HeKa), MTS
[16] = MH media without salt ions or serum, three independent experiments in triplicate

Row | Compound | MIC, MRSA (ATCC BAA-1556), Control (MRSA (ATCC BAA-1556)) [µg/mL] | MIC, MRSA (ATCC BAA-1556) (MRSA (ATCC BAA-1556); [9]) [µg/mL] | MIC, MRSA (ATCC BAA-1556), MgCl2 (MRSA (ATCC BAA-1556)) [µg/mL] | MIC, MRSA (ATCC BAA-1556), CaCl2 (MRSA (ATCC BAA-1556)) [µg/mL] | MIC, MRSA (ATCC BAA-1556), KCl (MRSA (ATCC BAA-1556)) [µg/mL] | MIC, MRSA (ATCC BAA-1556), NH4Cl (MRSA (ATCC BAA-1556)) [µg/mL] | MIC, MRSA (ATCC BAA-1556), NaCl (MRSA (ATCC BAA-1556)) [µg/mL] | MIC, MRSA (ATCC BAA-1556), FBS (25%) (MRSA (ATCC BAA-1556)) [µg/mL] | MIC, MRSA (ATCC BAA-1556) (MRSA (ATCC BAA-1556); value in parentheses (μM)) [µM] | MIC, S. pneumoniae (ATCC 49619) [2] [µg/mL] | MIC, A. baumannii (ATCC BAA1605) [4] [µg/mL] | MIC, Bacillus subtilis (ATCC 6633) ([1]; ATCC 6633, 24 h) [µg/mL] | MIC, E. coli (ATCC 25922), Control (E. coli (ATCC 25922); ATCC 25922, 24 h) [µg/mL] | MIC, E. coli (ATCC 25922), FBS (25%) (E. coli (ATCC 25922); ATCC 25922, 24 h) [µg/mL] | MIC, E. coli (ATCC 25922), NaCl (E. coli (ATCC 25922); ATCC 25922, 24 h) [µg/mL] | MIC, E. coli (ATCC 25922) (E. coli (ATCC 25922); [9]) [µg/mL] | MIC, E. coli (ATCC 25922) (E. coli (ATCC 25922); value in parentheses (μM)) [µM] | MIC, E. coli (ATCC BAA-2452) (E. coli (ATCC BAA-2452)) [µg/mL] | MIC, K. pneumonia (ATCC BAA-2470) [5] [µg/mL] | MIC, P. aeruginosa (ATCC 10145) ([7]; ATCC 10145, 24 h) [µg/mL] | further results
1 | CCCCCCCCCC(=O)N[C@@H](Cc1c[nH]c2ccccc12)C(=O)N[C@H](CC(N)=O)C(=O)N[C@@H](CC(=O)O)C(=O)N[C@@H]1C(=O)NCC(=O)N[C@@H](CCCN)C(=O)N[C@@H](CC(=O)O)C(=O)N[C@H](C)C(=O)N[C@@H](CC(=O)O)C(=O)NCC(=O)N[C@H](CO)C(=O)N[C@@H]([C@H](C)CC(=O)O)C(=O)N[C@@H](CC(=O)c2ccccc2N)C(=O)O[C@@H]1C [daptomycin, reference compound] | 1.5 | 1.5 | 3.1 (≈ 1.91 µM) | 3.1 (≈ 1.91 µM) | 1.5 (≈ 0.926 µM) | 1.5 (≈ 0.926 µM) | 1.5 (≈ 0.926 µM) | 3.1 (≈ 1.91 µM) | 0.86 | 12.5 | – | – | – | – | – | – | – | – | – | – | MIC, Bacillus subtilis (ATCC 6633) ([1]; Gram-positive, CLSI microdilution, CAMHB, 37 °C, 24 h, highest MIC of three independent experiments in triplicate): 0.7 µg/mL; cytotoxicity against kidney and liver cells ([3]; HEK293 and HPRGC10 (HepaRG), up to 250 μg/mL): negligible cytotoxicity
2 | KWIKKWIKWWKK-NH2 [7b] | 6.2 | 6.2 | 6.2 | 12.5 | 12.5 | 12.5 | 25 | 25 | 3.53 | – | 12.5 | 3.1 | 6.2 | 50 | 25 | 6.2 | 3.53 | 6.2 | 25 | 6.2 | MIC, E. coli (ATCC 25922), KCl (E. coli (ATCC 25922); ATCC 25922, 24 h): 25 µg/mL; MIC, E. coli (ATCC 25922), NH4Cl (E. coli (ATCC 25922); ATCC 25922, 24 h): 25 µg/mL; MIC, E. coli (ATCC 25922), MgCl2 (E. coli (ATCC 25922); [10]): 12.5 µg/mL; MIC, E. coli (ATCC 25922), CaCl2 (E. coli (ATCC 25922); [11]): 12.5 µg/mL; MIC, Klebsiella pneumonia (ATCC 13883) ([6]; ATCC 13883, 24 h): 25 µg/mL
3 | KWLKKWLKWWKK-NH2 [8b] | 3.1 | 3.1 | 6.2 | 6.2 | 6.2 | 6.2 | 12.5 | 12.5 | 1.76 | 12.5 | 3.1 | 3.1 | 6.2 | 25 | 25 | 6.2 | 3.53 | 6.2 | 12.5 | 6.2 | MIC, E. coli (ATCC 25922), CaCl2 (E. coli (ATCC 25922); ATCC 25922, 24 h): 25 µg/mL; MIC, E. coli (ATCC 25922), MgCl2 (E. coli (ATCC 25922); ATCC 25922, 24 h): 25 µg/mL; MIC, E. coli (ATCC 25922), KCl (E. coli (ATCC 25922); [12]): 12.5 µg/mL; MIC, E. coli (ATCC 25922), NH4Cl (E. coli (ATCC 25922); [13]): 12.5 µg/mL; MIC, Klebsiella pneumonia (ATCC 13883) [6, 14]: 12.5 µg/mL; MIC, nonresistant and MDR S. pneumoniae [8]: 12.5 µg/mL; cell viability at 250 μg/mL, except for skin cells ([3]; MRC-5, HEK-293, HepaRG, MTS): above 60%; cell viability at 50 μg/mL [3, 15]: above 75%
4 | RWIRRWIRWWRR-NH2 [7a] | 6.2 | 6.2 | 6.2 | 6.2 | 12.5 | 6.2 | 12.5 | 25 | 3.22 | – | 12.5 | 6.2 | – | 50 | 25 | 6.2 | 3.22 | 12.5 | 12.5 | – | MIC, E. coli (ATCC 25922), Control (E. coli (ATCC 25922); [16]): 6.2 µg/mL; MIC, E. coli (ATCC 25922), MgCl2 (E. coli (ATCC 25922); [10]): 12.5 µg/mL; MIC, E. coli (ATCC 25922), CaCl2 (E. coli (ATCC 25922); [11]): 12.5 µg/mL; MIC, E. coli (ATCC 25922), KCl (E. coli (ATCC 25922); [12]): 12.5 µg/mL; MIC, E. coli (ATCC 25922), NH4Cl (E. coli (ATCC 25922); [13]): 12.5 µg/mL; MIC, Klebsiella pneumonia (ATCC 13883) ([6]; ATCC 13883, 24 h): 25 µg/mL; MIC, P. aeruginosa (ATCC 10145) [7, 14]: 12.5 µg/mL
5 | RWLRRWLRWWRR-NH2 [8a] | 6.2 | 6.2 | 6.2 | 6.2 | 12.5 | 6.2 | 12.5 | 50 | 3.22 | – | 6.2 | 3.1 | – | > 50 | > 50 | 12.5 | 6.49 | 12.5 | 12.5 | 6.2 | MIC, E. coli (ATCC 25922), CaCl2 (E. coli (ATCC 25922); ATCC 25922, 24 h): 25 µg/mL; MIC, E. coli (ATCC 25922), KCl (E. coli (ATCC 25922); ATCC 25922, 24 h): 25 µg/mL; MIC, E. coli (ATCC 25922), MgCl2 (E. coli (ATCC 25922); ATCC 25922, 24 h): 50 µg/mL; MIC, E. coli (ATCC 25922), NH4Cl (E. coli (ATCC 25922); ATCC 25922, 24 h): 25 µg/mL; MIC, E. coli (ATCC 25922), Control (E. coli (ATCC 25922); [16]): 12.5 µg/mL; MIC, Klebsiella pneumonia (ATCC 13883) [6, 14]: 12.5 µg/mL; cell viability at 50 μg/mL [3, 15]: below 60%; cell viability at 250 μg/mL [3, 15]: below 30%
